Assays:
[1] = molecular target: T1, human recombinant mGlu1a receptor (Homo sapiens, UniProt Q13255); assay: glutamate induced calcium flux (FLIPR, Fluo-3) in AV-12 cells expressing mGlu1a; type: cell-based; conditions: inhibition of peak fluorescence response to glutamate at EC90% (10 μM)
T1 construct: expressed in transfected cells
Procedure: The relative potency and selectivity of compounds of the instant invention for mGlu1 receptors is evaluated using stable clonal cell lines expressing recombinant mGlu1, 2, 3, 4. 5 or 8 receptors transfected into AV12 cell lines containing the rat EAAT1 glutamate transporter (RGT) cells.
For example, in more detail, compounds of the present invention are evaluated for effects on glutamate induced calcium flux responses using an AV-12 cell line expressing human recombinant mGlu1a receptor protein (see Kingston et al. Neuropharmacology. 37(1):1-12, 1998). mGlu1 receptor mediated responses are determined by changes in intracellular calcium concentrations measured by a fluorescent calcium sensitive dye Fluo-3. […] Unincorporated extracellular dye is removed from the wells by washing with buffer solution, and plates are then transferred to a 96-channel fluorimetric imaging plate reader (FLIPR-Molecular Devices Corporation, La Jolla, Calif., USA). Baseline fluorescence readings are undertaken for 10 sec prior to addition of test compounds by an automatic pipetting device integral to the FLIPR instrument. Following a 20 sec delay, glutamate is then added to the wells at an EC90% concentration (10 μM); and changes in fluorescence are monitored over 60 sec. […] IC50 values are calculated using a 4 parameter logistic curve fitting program (GraphPad Prism™ V4 or Activity Base™ V5.3 software).

[2] = test system: fasted male Harlan Sprague Dawley rats; assay: Formalin model; type: in vivo, rat
Procedure: (§1) These well known pain models conveniently may be carried out as summarized below. […] All data are analyzed by ANOVA and Dunnett's t-test using JMPv4.1 (SAS Institute Inc., Cary, N.C.) statistical software unless otherwise indicated. Data are expressed as means±SEM. Specific conditions for each model are briefly described.
Formalin model: Drug is administered prior to formalin (50 μl, 5%), injected s.c. into the dorso-lateral surface of the right hindpaw. Paw-licking behavior is measured in an automated assay, as number of events, from 0-50 minutes after formalin. Data are expressed as paw-licking pain behavior events in early phase (0-5 minutes) or late phase (15-40 minutes). […] L5/L6 Spinal Nerve ligation model: Tight ligation is performed on L5 and L6 spinal nerves (one side only). Two weeks later, mechanical allodynia behavior is measured using von Frey filaments using incremental bending forces (0.5-15 g) at various time points after drug administration. Carrageenan model: Carrageenan (100 μl, 3%) is injected into the plantar surface of the right paw, and drug is administered two hours after carrageenan. Thermal hyperalgesia is measured using a radiant heat source, with a 30 second cut off to prevent tissue damage. Paw withdrawal latency in seconds is measured as the difference between the inflammed paw and the non-inflammed left paw. Capsaicin model: Drug is administered prior to capsaicin. Capsaicin (25 μl, 30 μg) in olive oil is injected into the plantar surface of the right paw. Mechanical allodynia behavior is measured using von Frey filaments using incremental bending forces (0.5-15 g) at 15 minutes and 1 hour after capsaicin. Tail Flick model: Radiant heat source at base of tail with 10 sec cut off is used to elicit tail flick response at various time points after drug administration. Rotorod test: Male Sprague Dawley rats (180-230 g, Harlan labs, Indianapolis) are used for the rotorod test. […] Data are analyzed by ANOVA and Dunnett's t-test using JMPv4.1 (SAS Institute Inc., Cary, N.C.) statistical software. Data are expressed as means±SEM.

[3] = in vivo; cited from earlier work
[4] = in vivo; cited from earlier work; remark: listed apart in the source
[5] = test system: fasted male Harlan Sprague Dawley rats; assay: Carrageenan model; type: in vivo, rat; conditions: fasted male HSD rats, at doses with no deficit in the rotorod test
Procedure: as §1
(§2) Formalin model: Drug is administered prior to formalin (50 μl, 5%), injected s.c. into the dorso-lateral surface of the right hindpaw. Paw-licking behavior is measured in an automated assay, as number of events, from 0-50 minutes after formalin. Data are expressed as paw-licking pain behavior events in early phase (0-5 minutes) or late phase (15-40 minutes). […] Two weeks later, mechanical allodynia behavior is measured using von Frey filaments using incremental bending forces (0.5-15 g) at various time points after drug administration. […] Thermal hyperalgesia is measured using a radiant heat source, with a 30 second cut off to prevent tissue damage. Paw withdrawal latency in seconds is measured as the difference between the inflammed paw and the non-inflammed left paw. […] Mechanical allodynia behavior is measured using von Frey filaments using incremental bending forces (0.5-15 g) at 15 minutes and 1 hour after capsaicin. […] Data are analyzed by ANOVA and Dunnett's t-test using JMPv4.1 (SAS Institute Inc., Cary, N.C.) statistical software. Data are expressed as means±SEM.

[6] = test system: fasted male Harlan Sprague Dawley rats; assay: Capsaicin model; type: in vivo, rat; conditions: fasted male HSD rats, at doses with no deficit in the rotorod test
Procedure: as §1, §2

[7] = test system: fasted male Harlan Sprague Dawley rats; assay: Tail Flick model; type: in vivo, rat; conditions: fasted male HSD rats, at doses with no deficit in the rotorod test
Procedure: as §1, §2

[8] = test system: non-fasted male HSD rats; assay: L5/L6 Spinal Nerve ligation model; type: in vivo, rat; conditions: non-fasted male HSD rats (300-350 g), at doses with no deficit in the rotorod test
Procedure: as §1, §2

[9] = test system: Male Sprague Dawley rats; assay: Rotorod test; type: in vivo, rat; conditions: at the doses active in the pain models
Procedure: as §1, §2

T1 sequence (Q13255 19-1194): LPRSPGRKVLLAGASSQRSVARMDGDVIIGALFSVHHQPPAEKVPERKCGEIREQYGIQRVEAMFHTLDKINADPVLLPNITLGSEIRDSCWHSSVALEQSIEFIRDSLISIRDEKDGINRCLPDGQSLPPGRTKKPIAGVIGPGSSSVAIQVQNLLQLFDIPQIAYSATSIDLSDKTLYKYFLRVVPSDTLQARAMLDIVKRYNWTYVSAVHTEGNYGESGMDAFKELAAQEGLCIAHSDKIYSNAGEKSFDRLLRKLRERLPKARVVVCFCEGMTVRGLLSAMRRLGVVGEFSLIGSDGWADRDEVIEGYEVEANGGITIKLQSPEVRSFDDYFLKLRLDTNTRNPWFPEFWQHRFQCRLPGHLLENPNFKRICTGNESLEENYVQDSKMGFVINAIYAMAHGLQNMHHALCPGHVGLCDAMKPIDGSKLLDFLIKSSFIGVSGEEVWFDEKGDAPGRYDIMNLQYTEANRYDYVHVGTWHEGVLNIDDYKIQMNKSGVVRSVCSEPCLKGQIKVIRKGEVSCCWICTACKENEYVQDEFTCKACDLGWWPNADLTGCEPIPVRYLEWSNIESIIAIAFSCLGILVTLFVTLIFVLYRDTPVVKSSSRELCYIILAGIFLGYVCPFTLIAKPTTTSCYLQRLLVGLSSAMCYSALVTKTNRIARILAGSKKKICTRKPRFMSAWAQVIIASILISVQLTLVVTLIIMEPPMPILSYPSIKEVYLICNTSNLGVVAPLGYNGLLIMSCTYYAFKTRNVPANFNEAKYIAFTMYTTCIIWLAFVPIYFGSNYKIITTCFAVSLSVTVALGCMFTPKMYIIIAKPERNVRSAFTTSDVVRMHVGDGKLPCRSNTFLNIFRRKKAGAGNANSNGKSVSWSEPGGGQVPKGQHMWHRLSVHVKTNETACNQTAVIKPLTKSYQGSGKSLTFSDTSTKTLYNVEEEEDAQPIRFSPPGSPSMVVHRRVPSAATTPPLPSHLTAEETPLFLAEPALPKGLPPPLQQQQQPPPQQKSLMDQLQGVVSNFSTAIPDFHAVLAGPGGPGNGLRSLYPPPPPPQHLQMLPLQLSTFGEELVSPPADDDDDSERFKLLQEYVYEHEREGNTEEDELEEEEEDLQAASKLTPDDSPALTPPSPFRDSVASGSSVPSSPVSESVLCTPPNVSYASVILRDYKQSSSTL

| IC50 [1] | performance in the rotorod test [9] | SMILES | late phase pain behavior (paw-licking, 15-40 minutes) ([2]; 1 to 30 mg/kg) | nocifensive responses in the formalin test [3] | mechanical allodynia in the L5/L6 spinal nerve ligation model [4] | activity in the formalin model ([2]; fasted male HSD rats, at doses with no deficit in the rotorod test) | late phase pain behavior (paw-licking, 15-40 minutes) ([2]; fasted rats, 3 to 60 mg/kg, p.o., 1 hour prior to formalin) | activity in the carrageenan model [5] | activity in the capsaicin model [6] | activity in the tail flick model [7] | activity in the L5/L6 spinal nerve ligation model [8] |
| --- | --- | --- | --- | --- | --- | --- | --- | --- | --- | --- | --- |
| < 0.02 µM |  | Cc1c(-c2ccc(Cl)cc2)nsc1NC(=O)[C@@H]1C[C@H]1C [Example 6, (R,R)—N-[3-(4-chlorophenyl)-4-methylisothiazol-5-yl]-2-methylcyclopropanecarboxamide] | dose dependent attenuation |  |  |  |  |  |  |  |  |
|  |  | COc1ccc(Nc2ncnc3ccc(OC)cc23)cc1 [LY456236] |  | can reduce nocifensive responses | can reduce |  |  |  |  |  |  |
| < 0.02 µM | no deficit in performance | COc1ccc(-c2nsc(NC(=O)[C@@H]3C[C@H]3C)c2C)cc1 [Example 1, (R,R)—N-[3-(4-methoxyphenyl)-4-methylisothiazol-5-yl]-2-methylcyclopropanecarboxamide] |  |  |  | dose-dependent activity | dose dependent attenuation | dose-dependent activity | dose-dependent activity | dose-dependent activity | dose-dependent activity |

Reference: patent US7960419B2, “Substituted carboxamides” (Eli Lilly and Company, priority 2006, dated 2011)
